Laboratory results reported in patent US10766857B2, “Compound having BLT inhibitory activity and composition, for preventing or treating inflammatory diseases, comprising same as active ingredient” (DONGGUK UNIVERSITY INDUSTRY-ACADEMIC COOPERATION FOUNDATION, priority 2015, dated 2020).

Columns and labels:
MDA-MB-231 cells = test: IL-8 expression (RT-PCR); assay type: cell-based
Protocol: (§1) The breast cancer cells such as the MDA-MB-231 cells were obtained from Korean Cell Line Bank (Seoul, Korea), and the MDA-MB-435 cells were provided by J. H. Lee (Asan Medical Center, Seoul, Korea). These cells were cultured in an RPMI 1640 medium (Invitrogen) containing 10% FBS (Life Technologies, Inc.), 1% penicillin (50 units/mL), and an antibiotic antimycotic solution (Life Technologies, Inc.) at 37° C. under a 5% CO2 condition.
(§2) To confirm the IL-8 expression according to the treatment of the compound of the present invention, total RNA was isolated from cells using Easy Blue (Intron, Sungnam, Korea), and quantified by absorbance at 260 nm. Complementary DNA (cDNA) was synthesized with the RNA (1.25 μg) through reverse transcription using a polymerase chain reaction (PCR) technique. An expression level was determined using primers specifically binding to IL-8 and glyceraldehyde-3-phosphate dehydrogenase (GAPDH).

MDA-MB-435 cells = test: IL-8 expression (RT-PCR); assay type: cell-based
Protocol: as §1, §2

BLT1 = target: T1, BLT1 (Homo sapiens, UniProt Q15722); test: LTB4-induced chemotactic motility, Transwell, CHO-BLT1 cells; assay type: cell-based; conditions: 10 μM pre-treatment, LTB4 10 nM
T1 construct: expressed in transfected cells; host or cells: CHO cells stably expressing BLT1 (CHO-BLT1)
T1 sequence (Q15722 whole entry, species assumed): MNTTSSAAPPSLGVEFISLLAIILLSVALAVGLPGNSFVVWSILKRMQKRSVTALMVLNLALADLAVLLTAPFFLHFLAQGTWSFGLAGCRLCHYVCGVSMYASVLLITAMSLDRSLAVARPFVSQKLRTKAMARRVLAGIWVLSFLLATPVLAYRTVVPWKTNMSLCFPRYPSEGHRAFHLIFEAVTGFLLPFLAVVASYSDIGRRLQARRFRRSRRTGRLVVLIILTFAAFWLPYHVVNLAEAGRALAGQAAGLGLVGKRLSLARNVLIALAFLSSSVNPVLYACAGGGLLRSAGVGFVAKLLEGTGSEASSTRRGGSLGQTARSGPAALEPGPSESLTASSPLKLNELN
Protocol: Chemotactic motility was analyzed using a Transwell chamber including a polycarbonate filter (8-μm pore size, Corning Costar) with a 6.5-mm diameter. Specifically, the lower surface of the filter was coated with 10 μg/mL fibronectin in a serum-free RPMI 1640 medium at 37° C. for 1 hour. The experiment was performed by placing the filter dried and coated with RPMI 1640 media containing various amounts of LTB4 in the lower wells of the Transwell chamber, and loading CHO cells stably expressing BLT1 and BLT2 into the upper wells containing serum-free RPMI 1640 media finally at 2×10^4 cells/100 μL. To evaluate the effect of inhibitors, the cells were pre-treated with each inhibitor for 30 minutes before dispensing. After the cells were cultured at 37° C. in 5% CO2 for 3 hours, the filters were fixed with methanol for 3 minutes, and stained with hematoxylin and eosin for 10 minutes. In the experiment, the cells were BLT2-expressing cells (CHO-BLT2 cells) and BLT1-expressing cells (CHO-BLT1 cells), and LY255283 and U75302 were used as positive controls for each type of the cells, and BLT2 ligand LTB4, (300 nM), BLT1 ligand LTB4 (10 nM), and lysophosphatidic acid (LPA; 100 nM) were used as comparative controls. The chemotactic motility was quantitatively analyzed by counting the cells on the lower side of the filter under an optical microscope (magnification, 200×). For each analysis, 6 fields were subjected to counting, each sample was analyzed twice, and the analysis was repeated three times.

[1] = tested on: severe asthma-induced mice; test: OVA-induced asthma mice: AHR and IL-4; assay type: in vivo; conditions: pre-treated at 10 μM (so in the source)
Source text: Mast cells play a pivotal role in the initial reaction to asthma, and when an allergen enters the body from the outside through an airway, the mast cells are activated, thereby secreting various cytokines (interleukin-4 and interleukin-13). Due to the cytokines, the influx of inflammatory cells, the generation of mucus and the airway contraction occur. The inventors used 7-week-old (18 to 20 g) female BALB/c mice provided by Orient (Seoungnam, Korea) for the experiment to confirm the antiasthma effect, and then the asthma was induced in the mice. […] On the 24th day of the initial sensitization, airway hyperresponsiveness (AHR) was detected, and on the 25th day, the mice were dissected to observe asthma phenotypes, for example, inflammatory cytokine IL-4 expression and the influx of inflammatory cells (neutrophils). […] On the 23rd day of the initial sensitization, AHR was detected, and on the 24th day, the mice were dissected to observe a severe asthma phenotype, for example, the influx of the inflammatory cells (neutrophils). […] The AHR was analyzed using an enhanced pause as the indicator of the asthma phenomenon. Bronchoalveolar lavage fluid cell counts were quantified by counting cells under an optical microscope (magnification, 200×). In each analysis, 4 fields were subjected to counting, each sample was analyzed twice, and the analysis was repeated three times.

[2] = tested on: cancer cells (MDA-MB-231); test: Metastasis of breast cancer cells in nude mice; assay type: in vivo; conditions: MDA-MB-231 in nude mice, i.p.; LMT-696 and LY255283 2.5 mg/kg, U75302 0.25 mg/kg; 15 weeks
Protocol: An experiment for the metastasis of breast cancer cells according to the treatment of the compound of the present invention was approved by the Ethics Committee of Korea University, and all experimental animals used in this experiment were treated according to the approved guidelines of the Korea University Animal Care and Use Committee. Six-week-old female nude mice (Charles River, Wilmington, Mass.) were injected with cancer cells to confirm cancer cell metastasis. The breast cancer cells were pre-treated with the compound of the present invention (LMT-696, 10 μM), LY255283, U75302 and DMSO, and 24 hours later, harvested with trypsin-EDTA, resuspended in PBS, and then 2×10^6 of the breast cancer cells were intraperitoneally injected into mice anesthetized with zoletil (50 mg/kg). After five days, the compound of the present invention (LMT-696; 2.5 mg/kg), LY255283 (2.5 mg/kg), U75302 (0.25 mg/kg) and DMSO were injected intraperitoneally three times every five days. At 15 weeks after the injection of the breast cancer cells, the mice were dissected to observe the cancer cell metastasis.

CCCCC(=O)N(CC#Cc1ccc(C(=O)N2CCN(C(C)C)CC2)cc1)c1ccccc1 [LMT-696, N-(3-(4-(4-isopropylpiperazine-1-carbonyl)phenyl)prop-2-ynyl)-N-phenylpentaneamide]
IL-8 expression level (MDA-MB-231 cells): significantly inhibited | IL-8 expression level (MDA-MB-435 cells): significantly inhibited | inhibitory effect on chemotactic motility (BLT1): did not exhibit the inhibitory effect | AHR reduced ([1]; airway constrictor 50 mg/ml): 70% | generation of IL-4 reduced ([1]; cells isolated from the abdominal cavity of the mice): 70% | metastasis of the cancer cells inhibited as compared with the control [2]: 40%
